Common to all, as to test: NCI anticancer screen, dose series, 48 h
The test system of assay [1] is SK-MEL-5.
The test system of assay [2] is SR.
Assay [3] concerns SN12C.
In assay [4] the test system is MDA-N.
Assay [5] deals with CAKI-1.
Assay [6] concerns SF-268.
The test system of assay [7] is HCT-116.
Assay [8] concerns ACHN.
The test system of assay [9] is MDA-MB-435.
The subject of assay [10] is NCI-H23.
Assay [11] has as its system 786-0.
For assay [12], the system named is SW-620.
The subject of assay [13] is NCI/ADR-RES.
Assay [14] has as its system LOX IMVI.
Assay [15] relates to Malme-3M.
In assay [16] the test system is UACC-62.
Assay [17] has as its system MDA-MB-231.
Assay [18] concerns OVCAR-3.
Assay [19] concerns NCI-H460.
Assay [20] has as its system NCI-H226.

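The compound was tested at five concentrations on cells cultured in 96-well plates, with a 48-hour exposure period. The concentration for 50% growth inhibition is given as GI50.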 Calls of active or inactive are those of the source. Cut-off read from the data, not from the text of the source: active = GI50 up to about 1.1 µM and inactive = higher.

In the case of `O=C(Nc1ccc(C(F)(F)F)cc1)NC(F)(F)F`, the GI50 is > 100 µM (inactive) in assay [1]; > 100 µM (inactive) in [2]; > 100 µM (inactive) in assay [3]; > 100 µM (inactive) in assay [4]; 34.5 µM (inactive) in assay [5]; > 100 µM (inactive) in assay [6]. Moreover, the GI50 in [7], in assay [8], in [9], in [10], in [11] and in assay [12] was > 100 µM (inactive) in each case. Besides, the GI50 in [13] and in assay [14] was > 100 µM (inactive) throughout.
As for `S=c1[nH]c(Cl)cc2nc(Cl)cn12`, the GI50 in assay [1] was 2.95 µM (inactive); in [3], 7.29 µM (inactive); in [4], 1.98 µM (inactive); in assay [5] it was 4.53 µM (inactive); in assay [6] it was 5.11 µM (inactive); in assay [15], 2.65 µM (inactive). Moreover, the GI50 was 3.82 µM (inactive) in [7]; 6.93 µM (inactive) in [16]; 5.43 µM (inactive) in assay [17]; 2.59 µM (inactive) in assay [18]; 8.61 µM (inactive) in assay [8]; 2.09 µM (inactive) in assay [9]. Moreover, the GI50 in assay [10] was 5.82 µM (inactive); in assay [19], 13.6 µM (inactive); in assay [11] it was 3.72 µM (inactive); in assay [12], 6.68 µM (inactive); in assay [13], 2.54 µM (inactive); in assay [14] it was 7.85 µM (inactive). Also, the GI50 in assay [20] was 15 µM (inactive).
On to `CC(C)OP(=O)(OC(C)C)C(C(C)C)N(C)/C(N)=N\C1=NC(C(F)(F)F)(C(F)(F)F)N=C(C(C(F)(F)F)C(F)(F)F)O1` (stereo not drawn), for which the GI50 is 1.56 µM (inactive) in [1]; 1.9 µM (inactive) in assay [2]; 3.15 µM (inactive) in assay [3]; 2.14 µM (inactive) in [4]; 3.12 µM (inactive) in [5]; 2.62 µM (inactive) in assay [6]. Moreover, the GI50 was 4.51 µM (inactive) in [15]; 2.31 µM (inactive) in [7]; 2.01 µM (inactive) in [16]; 1.99 µM (inactive) in assay [17]; 3.27 µM (inactive) in [18]; 2.59 µM (inactive) in assay [8]. For the same compound, the GI50 in assay [9] is 1.8 µM (inactive); in assay [10], 3.61 µM (inactive); in assay [19], 2.64 µM (inactive); in assay [11] it was 3.7 µM (inactive); in assay [12] it was 2.28 µM (inactive); in assay [14] it was 1.79 µM (inactive). The GI50 in [20] is 2.11 µM (inactive).
As to `CC(C)(CC#N)c1cc(CC(C)(C)c2cc(CC(C)(C)c3cc(C(C)(C)C4(C)OCCO4)no3)no2)no1`, the GI50 in [1] is 75.7 µM (inactive); in assay [3], 25.8 µM (inactive); in assay [4] it was 51.1 µM (inactive); in assay [5] it was 22.4 µM (inactive); in assay [6] it was 39.4 µM (inactive); in assay [15], 91 µM (inactive). In addition, the GI50 in assay [7] is 51.4 µM (inactive); in [16] it was 41.9 µM (inactive); in assay [17], 22.4 µM (inactive); in [18] it was 56 µM (inactive); in assay [8], 35.5 µM (inactive); in [9], > 100 µM (inactive). For the same compound, the GI50 in assay [10] is > 100 µM (inactive); in assay [11], 17 µM (inactive); in assay [12], > 100 µM (inactive); in [13], 47.2 µM (inactive); in assay [20], 36.4 µM (inactive).
With `O=c1c2ccccc2sc2ccccc12`, the GI50 in [1], in [3], in [4], in assay [5], in assay [6] and in assay [15] was > 100 µM (inactive) throughout. Also, the GI50 in assay [7], in assay [16], in assay [17], in assay [18], in assay [8] and in assay [9] was > 100 µM (inactive) each time. Besides, the GI50 in [10], in [19], in assay [11], in assay [12], in assay [13] and in assay [14] was > 100 µM (inactive) throughout. For the same compound, the GI50 in assay [20] was > 100 µM (inactive).
In the case of `CN(C)c1cc[n+](-c2nc([N-]C(=O)C(F)(F)F)nc3c2ncn3C2CC(O)C(CO)O2)cc1` (stereo not drawn), the GI50 in [1], in assay [3], in assay [4], in [6], in [15] and in assay [7] was > 100 µM (inactive) throughout. For the same compound, the GI50 in assay [16], in [17], in assay [18], in assay [8], in assay [9] and in [10] was > 100 µM (inactive) throughout. For the same compound, the GI50 in assay [19], in assay [11], in [12], in [13], in assay [14] and in [20] was > 100 µM (inactive) each time.
As to `Cc1cccc(-c2cc(O)c3c(C)ccnc3n2)c1`, the GI50 in assay [1] is 0.269 µM (active); in assay [3], 0.564 µM (active); in assay [4], 0.0474 µM (active); in assay [5], 0.39 µM (active); in assay [6], 10 µM (inactive); in assay [7], 0.355 µM (active). The GI50 is 0.461 µM (active) in assay [16]; 0.745 µM (active) in assay [17]; 0.256 µM (active) in assay [18]; 0.601 µM (active) in assay [8]; 0.0463 µM (active) in assay [9]; 1.17 µM (inactive) in assay [10]. The GI50 was 0.363 µM (active) in assay [19]; 0.564 µM (active) in assay [11]; 0.169 µM (active) in assay [12]; 0.255 µM (active) in assay [13]; 0.667 µM (active) in assay [14]; 0.495 µM (active) in [20].
Turning to `CC(C)(CO)CNc1nc(N)nc(Cl)c1N`, the GI50 in [1] is 95.1 µM (inactive); in assay [3], > 100 µM (inactive); in assay [4] it was > 100 µM (inactive); in assay [5] it was > 100 µM (inactive); in [6] it was > 100 µM (inactive); in [15], > 100 µM (inactive). The GI50 in [7], in assay [16], in assay [17], in assay [18], in [8] and in assay [9] was > 100 µM (inactive) each time. The GI50 in [10], in assay [19], in assay [11], in assay [12], in assay [13] and in [14] was > 100 µM (inactive) throughout. Also, the GI50 in assay [20] was 67.3 µM (inactive).
As for `CN(CCNC(=O)c1nn(C)c2c1Cc1ccccc1-2)CCNC(=O)c1nn(C)c2c1Cc1ccccc1-2`, the GI50 was 12.1 µM (inactive) in assay [1]; 14.9 µM (inactive) in assay [3]; 14.5 µM (inactive) in assay [4]; 18.4 µM (inactive) in [5]; 14.7 µM (inactive) in [6]; 16.3 µM (inactive) in [15]. Besides, the GI50 is 15.1 µM (inactive) in [7]; 15.2 µM (inactive) in assay [16]; 19 µM (inactive) in assay [17]; 11.4 µM (inactive) in assay [18]; 14.5 µM (inactive) in assay [8]; 15.2 µM (inactive) in [9]. Further, the GI50 is 15.4 µM (inactive) in assay [10]; 16.4 µM (inactive) in assay [19]; 14.5 µM (inactive) in assay [11]; 18.7 µM (inactive) in assay [12]; 21.4 µM (inactive) in assay [13]; 16.4 µM (inactive) in [14]. Moreover, in assay [20], the GI50 is 18.3 µM (inactive).
With `CC(=O)/C(=C/N1C(=O)CC(=O)NC1=S)C(=O)Nc1ccccc1C`, the GI50 in [1] is 57.9 µM (inactive); in assay [3], > 100 µM (inactive); in assay [4], 49.2 µM (inactive); in assay [5], 87.9 µM (inactive); in assay [6], 35.1 µM (inactive); in assay [7] it was 31.6 µM (inactive). The GI50 in assay [16] is 24.3 µM (inactive); in assay [17], > 100 µM (inactive); in [18], 36.1 µM (inactive); in [8] it was 58.9 µM (inactive); in assay [9], 66.8 µM (inactive); in [10], 41.2 µM (inactive). Also, the GI50 in assay [19] is 39.2 µM (inactive); in assay [11], 21.7 µM (inactive); in assay [12], 32.8 µM (inactive); in [13] it was 39.7 µM (inactive); in assay [14] it was > 100 µM (inactive); in assay [20], > 100 µM (inactive).
As to `NC(=O)NNc1nc(-c2ccccc2)cs1`, the GI50 in assay [1], in assay [2], in [3], in assay [5], in assay [6] and in assay [15] was > 100 µM (inactive) each time. Besides, the GI50 in assay [7], in assay [16], in assay [17], in assay [18], in assay [8] and in assay [9] was > 100 µM (inactive) throughout. Besides, the GI50 in assay [19], in assay [11], in [12], in assay [13], in assay [14] and in assay [20] was > 100 µM (inactive) throughout.
